13 molecules from patent US20260242336A1, “COMPOSITION FOR PREVENTING OR TREATING CANCER DISEASES COMPRISING ARYL-PIPERIDINE DERIVATIVE” (KOREA RESEARCH INSTITUTE OF CHEMICAL TECHNOLOGY, priority 2023, published 2026) can be followed below.

Structures are written as SMILES. Where a name gives a salt, the structure may show the parent alone.

In the assay the target is T1, TNKS-1 (Homo sapiens, UniProt O95271).
T1 construct: purchased BPS Bioscience 80582
T1 sequence (O95271 1-1327): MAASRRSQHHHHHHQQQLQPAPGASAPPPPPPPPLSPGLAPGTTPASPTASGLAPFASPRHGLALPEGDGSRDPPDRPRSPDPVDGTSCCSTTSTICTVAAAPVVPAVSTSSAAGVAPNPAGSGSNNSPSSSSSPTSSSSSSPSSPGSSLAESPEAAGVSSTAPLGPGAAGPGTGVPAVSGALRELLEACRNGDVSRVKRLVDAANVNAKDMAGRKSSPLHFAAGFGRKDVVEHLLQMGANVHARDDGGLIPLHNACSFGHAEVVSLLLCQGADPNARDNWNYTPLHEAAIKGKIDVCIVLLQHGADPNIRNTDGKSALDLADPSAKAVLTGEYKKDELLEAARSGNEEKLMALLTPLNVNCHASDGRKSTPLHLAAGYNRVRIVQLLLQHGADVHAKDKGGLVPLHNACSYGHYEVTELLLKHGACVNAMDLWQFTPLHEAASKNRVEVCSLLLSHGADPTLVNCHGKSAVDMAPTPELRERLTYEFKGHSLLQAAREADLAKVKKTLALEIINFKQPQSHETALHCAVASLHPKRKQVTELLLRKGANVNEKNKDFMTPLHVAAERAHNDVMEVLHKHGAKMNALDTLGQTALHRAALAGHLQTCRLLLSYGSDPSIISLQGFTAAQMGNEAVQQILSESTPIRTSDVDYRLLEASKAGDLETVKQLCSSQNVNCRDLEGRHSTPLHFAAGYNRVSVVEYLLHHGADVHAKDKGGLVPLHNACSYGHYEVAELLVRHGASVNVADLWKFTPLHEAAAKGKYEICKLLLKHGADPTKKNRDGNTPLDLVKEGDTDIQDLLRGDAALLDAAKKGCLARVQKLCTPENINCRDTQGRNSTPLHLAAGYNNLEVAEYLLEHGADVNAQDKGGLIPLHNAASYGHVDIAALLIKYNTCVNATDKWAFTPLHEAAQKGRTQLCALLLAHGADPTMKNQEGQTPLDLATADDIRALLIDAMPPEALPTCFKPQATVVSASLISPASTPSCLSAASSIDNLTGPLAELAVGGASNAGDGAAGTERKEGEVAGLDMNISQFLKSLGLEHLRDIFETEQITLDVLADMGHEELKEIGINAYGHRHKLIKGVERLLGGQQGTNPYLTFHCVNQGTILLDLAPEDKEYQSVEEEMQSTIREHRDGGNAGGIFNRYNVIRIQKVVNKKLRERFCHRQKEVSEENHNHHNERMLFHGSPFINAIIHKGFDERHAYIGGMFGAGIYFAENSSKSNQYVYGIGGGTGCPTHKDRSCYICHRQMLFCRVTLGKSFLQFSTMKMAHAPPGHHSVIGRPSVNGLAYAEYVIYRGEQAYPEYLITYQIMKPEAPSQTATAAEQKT
The assay is described as follows: TNKS1 Histone Ribosylation Colorimetric Assay Kit (tankyrase-1 colorimetric activity assay). Conditions: read-out: TNKS-1 inhibitory activity (10 μM), 10 μM compound. The assay is classed as biochemical.
In the case of `N#Cc1ccccc1N1CCC(CC(=O)Nc2cnc3cccnn23)CC1` [TI-61816, 2-(1-(2-cyanophenyl)piperidin-4-yl)-N-(imidazo[1,2-b]pyridazin-3-yl)acetamide], the inhibition at 10 µM turned out to be 5 ± 1.2%.

As for `N#Cc1ccccc1N1CCC(CCCC(=O)Nc2nnc3ccccn23)CC1` [TI-62116, N-([1,2,4]triazolo[4,3-a]pyridin-3-yl)-4-(1-(2-cyanophenyl)piperidin-4-yl)butanamide], the inhibition at 10 µM was determined as 99 ± 0.1%. For `N#Cc1ccccc1N1CCC(CCC(=O)Nc2cnc3cccnn23)CC1` [TI-62121, 3-(1-(2-cyanophenyl)piperidin-4-yl)-N-(imidazo[1,2-b]pyridazin-3-yl)propanamide], the inhibition at 10 µM is 17 ± 1.5%. Then `N#Cc1ccccc1N1CCC(CCC(=O)Nc2cnc3ccccn23)CC1` [TI-62122, 3-(1-(2-cyanophenyl)piperidin-4-yl)-N-(imidazo[1,2-a]pyridin-3-yl)propanamid], with 10 ± 0.9%; and `N#Cc1ccccc1N1CCC(CCC(=O)Nc2cccc3[nH]ccc23)CC1` [TI-62126], with 1 ± 1.7%; and `O=C(CCC1CCN(c2ccccc2[N+](=O)[O-])CC1)Nc1nnc2ccccn12` [TI-62188, N-([1,2,4]triazolo[4,3-a]pyridin-3-yl)-3-(1-(2-nitrophenyl)piperidin-4-yl)propanamide], with at least 95%.

Regarding `O=C(CCC1CCN(c2cccc([N+](=O)[O-])c2)CC1)Nc1nnc2ccccn12` [TI-62189], the inhibition at 10 µM was 100%. The same measure for `O=C(CCC1CCN(c2ccc([N+](=O)[O-])cc2)CC1)Nc1nnc2ccccn12` [TI-62190]: 96 ± 0.2%. The same measure for `N#Cc1ccc(N2CCC(CCC(=O)Nc3nnc4ccccn34)CC2)cc1` [TI-62194]: 100%; for `O=C(CCC1CCN(c2ccc([N+](=O)[O-])cc2[N+](=O)[O-])CC1)Nc1nnc2ccccn12` [TI-62195]: at least 95%; for `CC(C)(C)OC(=O)N(CC(=O)Nc1nnc2ccccn12)C1CCN(c2ccccc2C#N)CC1` [TI-62197, tert-Butyl(2-([1,2,4]triazolo[4,3-a]pyridin-3-ylamino)-2-oxoethyl)(1-(2-cyanophenyl)piperidin-4-yl) carbamate]: 3 ± 0.9%. The same measure for `N#Cc1ccccc1N1CCC(NCC(=O)Nc2nnc3ccccn23)CC1` [TI-62198, N-([1,2,4]triazolo[4,3-a]pyridin-3-yl)-2-((1-(2-cyanophenyl)piperidin-4-yl)amino)acetamide trifluoroacetic acid salt]: 72 ± 0.3%.

Take `CN(CC(=O)Nc1nnc2ccccn12)C1CCN(c2ccccc2C#N)CC1` [TI-62199, N-([1,2,4]triazolo[4,3-a]pyridin-3-yl)-2-((1-(2-cyanophenyl)piperidin-4-yl)(methyl)amino)acetamide]: the inhibition at 10 µM came out at 98 ± 0.1%.
